Results taken from ChEMBL document CHEMBL1795287, “Efficient synthesis of 3-O-thia-cPA and preliminary analysis of its biological activity toward autotaxin” (Bioorg Med Chem Lett, 2011).

Columns and labels:
Autotaxin (Homo sapiens) [1] = target: Autotaxin (Homo sapiens) (UniProt Q13822); test: Inhibition of human ATX catalytic activity in MDA-MB-231 cells using conditioned medium at 10 uM; type: cell-based
Autotaxin (Homo sapiens) [2] = target: Autotaxin (Homo sapiens) (UniProt Q13822); test: Inhibition of human ATX catalytic activity in MDA-MB-231 cells using conditioned medium; type: cell-based

Compound	inhibition (Autotaxin (Homo sapiens) [1])	inhibition (Autotaxin (Homo sapiens) [2])
CCCCCC/C=C\CCCCCCCC(=O)OCC1COP(=O)(O)C1 (stereo not given)	66%	–
CCCCCCCC/C=C\CCCCCCCC(=O)OCC1COP(=O)(O)O1 (stereo not given)	25%	–
CCCCCC/C=C\CCCCCCCC(=O)OCC1CSP(=O)(O)O1 (racemic)	55%	Dose-dependent effect
CCCCCCCC/C=C\CCCCCCCC(=O)OCC1CSP(=O)(O)O1 (racemic)	55%	Dose-dependent effect
CCCCCCCCCCCCCCCC(=O)OCC1CSP(=O)(O)O1 (racemic)	55%	Dose-dependent effect
CCCCCCCCCCCCCCCCCC(=O)OCC1CSP(=O)(O)O1 (racemic)	55%	Dose-dependent effect
